Results reported in patent US20170190671A1, “BIS(ARYL)CATECHOL DERIVATIVES AS HERBICIDES” (E I DU PONT DE NEMOURS AND COMPANY, priority 2014, published 2017).

What was measured:
[1] = test system: ragweed (common ragweed, Ambrosia elatior); assay: Test A preemergence; format: in vivo; conditions: Ambrosia artemisiifolia, pre-emergence, 240 h, 0 to 100 scale (0 no effect, 100 complete control), read-out: Ragweed plant response rating
In short: (§1)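 Scoring: eye-based comparison with untreated controls, 0 for no effect through 100 for complete control, at about day 10. Treatments: directed soil spray preemergence; foliar spray postemergence on 2–10 cm plants at the one- to two-leaf stage. Medium: loam soil with sand.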

[2] = test system: pigweed (Amaranthus retroflexus); assay: Test A preemergence; format: in vivo; conditions: Amaranthus retroflexus, pre-emergence, 240 h, 0 to 100 scale (0 no effect, 100 complete control), read-out: Pigweed plant response rating
In short: as §1

[3] = test system: kochia (Kochia scoparia); assay: Test A preemergence; format: in vivo; conditions: Bassia scoparia, pre-emergence, 240 h, 0 to 100 scale (0 no effect, 100 complete control), read-out: Kochia plant response rating
In short: as §1

[4] = test system: Italian ryegrass (Lolium multiflorum); assay: Test A preemergence; format: in vivo; conditions: Lolium multiflorum, pre-emergence, 240 h, 0 to 100 scale (0 no effect, 100 complete control), read-out: Ryegrass, Italian plant response rating
In short: as §1

[5] = test system: barnyardgrass (Echinochloa crus-galli); assay: Test A preemergence; format: in vivo; conditions: Echinochloa crus-galli, pre-emergence, 240 h
In short: as §1

[6] = test system: giant foxtail (Setaria faberii); assay: Test A preemergence; format: in vivo; conditions: Setaria faberi, pre-emergence, 240 h, 0 to 100 scale (0 no effect, 100 complete control), read-out: Foxtail, Giant plant response rating
In short: as §1

[7] = test system: galium (catchweed bedstraw, Galium aparine); assay: Test A postemergence; format: in vivo; conditions: Galium, post-emergence, 240 h, 0 to 100 scale, read-out: Plant response rating, Galium
In short: as §1

[8] = test system: ragweed (common ragweed, Ambrosia elatior); assay: Test A postemergence; format: in vivo; conditions: Ambrosia artemisiifolia, post-emergence, 240 h, 0 to 100 scale, read-out: Plant response rating, Ragweed
In short: as §1

[9] = test system: pigweed (Amaranthus retroflexus); assay: Test A postemergence; format: in vivo; conditions: Amaranthus retroflexus, post-emergence, 240 h, 0 to 100 scale, read-out: Plant response rating, Pigweed
In short: as §1

[10] = test system: kochia (Kochia scoparia); assay: Test A postemergence; format: in vivo; conditions: Bassia scoparia, post-emergence, 240 h, 0 to 100 scale, read-out: Plant response rating, Kochia
In short: as §1

[11] = test system: Italian ryegrass (Lolium multiflorum); assay: Test A postemergence; format: in vivo; conditions: Lolium multiflorum, post-emergence, 240 h, 0 to 100 scale, read-out: Plant response rating, Ryegrass, Italian
In short: as §1

[12] = test system: wheat (Triticum aestivum); assay: Test A postemergence; format: in vivo; conditions: Triticum aestivum, post-emergence, 240 h, 0 to 100 scale, read-out: Plant response rating, Wheat
In short: as §1

[13] = test system: corn (Zea mays); assay: Test A postemergence; format: in vivo; conditions: Zea mays, post-emergence, 240 h, 0 to 100 scale
In short: as §1

[14] = test system: barnyardgrass (Echinochloa crus-galli); assay: Test A postemergence; format: in vivo; conditions: Echinochloa crus-galli, post-emergence, 240 h, 0 to 100 scale, read-out: Plant response rating, Barnyardgrass
In short: as §1

[15] = test system: blackgrass (Alopecurus myosuroides); assay: Test A postemergence; format: in vivo; conditions: Alopecurus myosuroides, post-emergence, 240 h, 0 to 100 scale, read-out: Plant response rating, Blackgrass
In short: as §1

[16] = test system: giant foxtail (Setaria faberii); assay: Test A postemergence; format: in vivo; conditions: Setaria faberi, post-emergence, 240 h, 0 to 100 scale, read-out: Plant response rating, Foxtail, Giant
In short: as §1

Molecule `Fc1cnc(Oc2c(F)ccc(F)c2Oc2ncc(Cl)cn2)nc1` [Compound 28] has a melting point of 94 to 98 °C, a pest or weed control at 31 g/ha ([1]; 31 g ai/ha) of 0% and a pest or weed control at 125 g/ha ([1]; 125 g ai/ha) of 0%. For the same molecule, the pest or weed control at 31 g/ha ([2]; 31 g ai/ha) was 50%, the pest or weed control at 125 g/ha ([2]; 125 g ai/ha) was 80% and the pest or weed control at 31 g/ha ([3]; 31 g ai/ha) was 0%. It also gave a pest or weed control at 125 g/ha ([3]; 125 g ai/ha) of 20%, a pest or weed control at 31 g/ha ([4]; 31 g ai/ha) of 0% and a pest or weed control at 125 g/ha ([4]; 125 g ai/ha) of 0%. It also gave a pest or weed control at 31 g/ha ([5]; 31 g ai/ha, 0 to 100 scale (0 no effect, 100 complete control), read-out: Barnyardgrass plant response rating) of 0%, a pest or weed control at 125 g/ha ([5]; 125 g ai/ha, 0 to 100 scale, read-out: Plant response rating, Barnyardgrass) of 10% and a pest or weed control at 31 g/ha ([6]; 31 g ai/ha) of 10%. The pest or weed control at 125 g/ha ([6]; 125 g ai/ha) was 40%, the pest or weed control at 31 g/ha ([7]; 31 g ai/ha) was 20% and the pest or weed control at 125 g/ha ([7]; 125 g ai/ha) was 70%. It also gave a pest or weed control at 31 g/ha ([8]; 31 g ai/ha) of 10%, a pest or weed control at 125 g/ha ([8]; 125 g ai/ha) of 30% and a pest or weed control at 31 g/ha ([9]; 31 g ai/ha) of 50%. For the same molecule, the pest or weed control at 125 g/ha ([9]; 125 g ai/ha) was 60%, the pest or weed control at 31 g/ha ([10]; 31 g ai/ha) was 30% and the pest or weed control at 125 g/ha ([10]; 125 g ai/ha) was 70%. The pest or weed control at 31 g/ha ([11]; 31 g ai/ha) was 0%, the pest or weed control at 125 g/ha ([11]; 125 g ai/ha) was 0% and the plant injury at 31 g/ha ([12]; 31 g ai/ha) was 0%. The plant injury at 125 g/ha ([12]; 125 g ai/ha) was 0%, the Corn plant response rating (crop injury, 0 = no effect, 100 = complete kill) at 31 g/ha ([13]; 31 g ai/ha) was 0% and the Corn plant response rating (crop injury, 0 = no effect, 100 = complete kill) at 125 g/ha ([13]; 125 g ai/ha) was 0%. For the same molecule, the pest or weed control at 31 g/ha ([14]; 31 g ai/ha) was 0%, the pest or weed control at 125 g/ha ([14]; 125 g ai/ha) was 0% and the pest or weed control at 31 g/ha ([15]; 31 g ai/ha) was 0%. For the same molecule, the pest or weed control at 125 g/ha ([15]; 125 g ai/ha) was 20%, the pest or weed control at 31 g/ha ([16]; 31 g ai/ha) was 0% and the pest or weed control at 125 g/ha ([16]; 125 g ai/ha) was 20%.
